Measurements from patent publication US4348404A, “Antiinflammatory 4,5-diaryl-α-polyfluoroalkyl-1H-imidazole-2-methanamines” (E. I. Du Pont de Nemours and Company, priority 1981, dated 1982).
Where two headings read alike, the source gives them in different places.

System: adjuvant-induced arthritis in rats
Assay: Established Adjuvant-Induced Arthritis in Rats
Type: in vivo, Lewis (Wistar) male rats
Conditions: for ED50: read-out: Adjuvant Arthritis ED50; for percent paw volume reduction at the indicated dose: oral gavage once daily for 7 days
[1] = rat, oral gavage once daily for 7 days (days 14-20), decrease from control paw volume, uninjected left hind paw, day 21, estimated from dose-response regression lines by inspection

Row | Structure (SMILES) | ED50 [1] | further results
1 | COc1ccc(-c2nc(C(N)(C(F)(F)F)C(F)(F)F)[nH]c2-c2ccc(OC)cc2)cc1 [Example 1, 4,5-Bis(4-methoxyphenyl)-α,α-di(trifluoromethyl)-1H-imidazole-2-methanamine] | 2 mg/kg | 
2 | NC(c1nc(-c2ccc(F)cc2)c(-c2ccc(F)cc2)[nH]1)C(F)(F)F (stereo not drawn) [Example 2, 4,5-Bis(4-fluorophenyl)-α-trifluoromethyl-1H-imidazole-2-methanamine] | 19 mg/kg | 
3 | CNC(c1nc(-c2ccc(F)cc2)c(-c2ccc(F)cc2)n1C)(C(F)(F)F)C(F)(F)F [Example 3, 4,5-Bis-(4-fluorophenyl)-N,1-dimethyl-α,α-di(trifluoromethyl)-1H-imidazole-2-methanamine] |  | percent paw volume reduction at the indicated dose (rat, @ 25 mg/kg): -41%
4 | NC(c1nc(-c2ccc(F)cc2)c(-c2ccc(F)cc2)[nH]1)(C(F)(F)F)C(F)(F)F [Example 4, 4,5-bis(4-fluorophenyl)-α,α-di(trifluoromethyl)-1H-imidazole-2-methanamine] | 1.7 mg/kg | 
5 | COc1ccc(-c2nc(C(N)(C(F)(F)F)C(F)(F)F)n(C)c2-c2ccc(OC)cc2)cc1 [Example 5] |  | percent paw volume reduction at the indicated dose (rat, @ 50 mg/kg): -27%
6 | Cn1c(C(N)(C(F)(F)F)C(F)(F)F)nc(-c2ccc(F)cc2)c1-c1ccc(F)cc1 [Example 6, 4,5-bis(4-fluorophenyl)-1-methyl-α,α-di(trifluoromethyl)-1H-imidazole-2-methanamine] | 3.4 mg/kg | 
7 | Cc1ccc(-c2nc(C(N)(C(F)(F)F)C(F)(F)F)[nH]c2-c2ccc(C)cc2)cc1 [Example 7] | 5.4 mg/kg | 
8 | NC(c1nc(-c2ccc(Cl)cc2)c(-c2ccc(Cl)cc2)[nH]1)(C(F)(F)F)C(F)(F)F [Example 8] |  | ED50 (Rattus norvegicus, po): 7 mg/kg
9 | NC(c1nc(-c2ccccc2)c(-c2ccccc2)[nH]1)(C(F)(F)F)C(F)(F)F [Example 9] | 8 mg/kg | 
